Test results: ChEMBL document CHEMBL1201862, “PubChem BioAssay data set” (2004)
Active and inactive are the calls of the source.

Assays:
[1] = target: Beta-2 adrenergic receptor (Homo sapiens, UniProt P07550); test: beta2AR agonists driving receptor internalization, dose response, cell-based, FAP fluorogen, flow cytometry, cherry pick 1 (AID 588763); format: functional
[2] = target: T1, Voltage-gated N-type calcium channel alpha-1B subunit/Amyloid beta A4 precursor protein-binding family A member 1 (Homo sapiens, UniProt Q00975+Q02410); format: protein assay
T1 sequence (Q00975 whole entry): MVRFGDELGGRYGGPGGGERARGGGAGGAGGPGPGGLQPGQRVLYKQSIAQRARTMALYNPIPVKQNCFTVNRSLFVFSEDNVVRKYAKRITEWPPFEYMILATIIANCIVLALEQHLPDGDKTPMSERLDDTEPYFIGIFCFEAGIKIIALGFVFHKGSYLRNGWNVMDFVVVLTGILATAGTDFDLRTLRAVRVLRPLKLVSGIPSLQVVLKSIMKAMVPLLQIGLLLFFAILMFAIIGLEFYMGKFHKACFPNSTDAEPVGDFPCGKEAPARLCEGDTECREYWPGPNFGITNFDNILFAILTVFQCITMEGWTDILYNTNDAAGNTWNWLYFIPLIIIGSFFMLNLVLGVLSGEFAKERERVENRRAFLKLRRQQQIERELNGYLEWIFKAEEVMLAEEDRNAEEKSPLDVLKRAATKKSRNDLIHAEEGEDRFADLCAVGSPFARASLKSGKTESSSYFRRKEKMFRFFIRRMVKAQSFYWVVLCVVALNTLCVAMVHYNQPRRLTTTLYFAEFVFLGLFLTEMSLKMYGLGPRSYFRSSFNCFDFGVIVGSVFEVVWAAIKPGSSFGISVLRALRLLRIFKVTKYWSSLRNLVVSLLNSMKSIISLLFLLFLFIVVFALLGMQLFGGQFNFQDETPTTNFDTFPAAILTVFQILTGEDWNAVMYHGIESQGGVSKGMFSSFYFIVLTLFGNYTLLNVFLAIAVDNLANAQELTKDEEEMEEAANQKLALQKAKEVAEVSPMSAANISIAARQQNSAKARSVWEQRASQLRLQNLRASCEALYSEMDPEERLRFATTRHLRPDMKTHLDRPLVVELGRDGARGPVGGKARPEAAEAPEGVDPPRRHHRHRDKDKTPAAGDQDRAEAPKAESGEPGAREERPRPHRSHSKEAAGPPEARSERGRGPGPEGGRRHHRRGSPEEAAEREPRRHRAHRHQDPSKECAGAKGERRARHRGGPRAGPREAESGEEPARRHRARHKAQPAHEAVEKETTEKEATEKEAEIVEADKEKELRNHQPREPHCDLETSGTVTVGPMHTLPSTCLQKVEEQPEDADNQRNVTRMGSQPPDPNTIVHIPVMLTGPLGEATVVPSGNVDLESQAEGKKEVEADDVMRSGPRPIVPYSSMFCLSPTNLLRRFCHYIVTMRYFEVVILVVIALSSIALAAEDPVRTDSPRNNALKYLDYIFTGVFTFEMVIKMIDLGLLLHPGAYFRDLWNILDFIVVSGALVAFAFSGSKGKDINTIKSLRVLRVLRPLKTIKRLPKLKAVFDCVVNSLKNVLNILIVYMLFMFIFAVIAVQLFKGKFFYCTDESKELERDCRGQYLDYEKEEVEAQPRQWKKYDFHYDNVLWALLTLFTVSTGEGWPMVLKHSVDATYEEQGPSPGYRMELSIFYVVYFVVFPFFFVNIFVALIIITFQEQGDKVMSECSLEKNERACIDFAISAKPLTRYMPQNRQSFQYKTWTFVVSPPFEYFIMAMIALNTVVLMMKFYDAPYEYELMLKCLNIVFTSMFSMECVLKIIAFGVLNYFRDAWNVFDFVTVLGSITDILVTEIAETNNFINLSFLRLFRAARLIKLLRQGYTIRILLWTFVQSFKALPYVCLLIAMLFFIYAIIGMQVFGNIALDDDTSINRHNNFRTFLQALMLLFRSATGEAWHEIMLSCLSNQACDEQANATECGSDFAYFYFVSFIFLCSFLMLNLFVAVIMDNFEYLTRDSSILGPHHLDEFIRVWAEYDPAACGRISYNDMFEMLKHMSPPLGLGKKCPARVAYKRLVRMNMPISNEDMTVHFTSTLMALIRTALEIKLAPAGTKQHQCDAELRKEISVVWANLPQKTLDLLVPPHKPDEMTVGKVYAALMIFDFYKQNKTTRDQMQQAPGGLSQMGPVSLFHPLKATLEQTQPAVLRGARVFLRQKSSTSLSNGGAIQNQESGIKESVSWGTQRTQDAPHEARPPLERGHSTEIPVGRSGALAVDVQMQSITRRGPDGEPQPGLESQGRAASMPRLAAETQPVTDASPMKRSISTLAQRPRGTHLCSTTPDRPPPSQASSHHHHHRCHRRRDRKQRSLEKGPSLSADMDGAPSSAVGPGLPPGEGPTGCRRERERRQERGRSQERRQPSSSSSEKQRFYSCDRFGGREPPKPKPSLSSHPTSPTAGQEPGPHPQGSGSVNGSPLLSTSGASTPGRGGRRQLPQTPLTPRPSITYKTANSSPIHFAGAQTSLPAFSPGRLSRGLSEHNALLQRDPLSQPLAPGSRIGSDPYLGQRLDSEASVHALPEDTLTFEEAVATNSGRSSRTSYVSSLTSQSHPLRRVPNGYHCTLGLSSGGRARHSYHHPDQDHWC
T1 sequence (Q02410 whole entry): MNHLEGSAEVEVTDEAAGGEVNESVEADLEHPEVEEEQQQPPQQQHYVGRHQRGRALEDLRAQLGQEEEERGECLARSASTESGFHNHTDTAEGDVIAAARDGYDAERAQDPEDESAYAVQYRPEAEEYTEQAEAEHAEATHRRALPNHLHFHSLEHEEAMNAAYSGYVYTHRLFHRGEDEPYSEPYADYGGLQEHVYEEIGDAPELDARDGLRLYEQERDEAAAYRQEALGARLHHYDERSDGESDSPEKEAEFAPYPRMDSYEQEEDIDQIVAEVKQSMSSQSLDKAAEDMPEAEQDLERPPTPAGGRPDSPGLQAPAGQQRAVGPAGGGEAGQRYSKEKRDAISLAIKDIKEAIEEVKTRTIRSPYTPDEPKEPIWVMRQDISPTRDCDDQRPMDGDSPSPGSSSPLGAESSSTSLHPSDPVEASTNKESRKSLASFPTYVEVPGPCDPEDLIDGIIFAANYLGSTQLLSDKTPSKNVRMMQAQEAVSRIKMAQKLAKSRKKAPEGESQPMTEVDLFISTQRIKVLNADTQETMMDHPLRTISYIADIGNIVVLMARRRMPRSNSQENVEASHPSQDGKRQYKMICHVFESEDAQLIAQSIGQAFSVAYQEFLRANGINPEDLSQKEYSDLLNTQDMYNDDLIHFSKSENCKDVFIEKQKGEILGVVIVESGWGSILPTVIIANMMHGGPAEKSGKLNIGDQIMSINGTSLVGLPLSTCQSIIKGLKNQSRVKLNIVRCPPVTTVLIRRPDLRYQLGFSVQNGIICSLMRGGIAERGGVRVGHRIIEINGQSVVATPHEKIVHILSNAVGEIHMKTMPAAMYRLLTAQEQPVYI

[3] = target: T1, Voltage-gated N-type calcium channel alpha-1B subunit/Amyloid beta A4 precursor protein-binding family A member 1; format: protein assay; remark: listed apart in the source
[4] = target: T2, Bifunctional protein GlmU (Mycobacterium tuberculosis, UniProt P9WMN3); test: Inhibitors of Mycobacterial Glucosamine-1-phosphate acetyl transferase (GlmU). Secondary screen.; set-up: species or system Mycobacterium tuberculosis H37Rv
T2 sequence (P9WMN3 whole entry): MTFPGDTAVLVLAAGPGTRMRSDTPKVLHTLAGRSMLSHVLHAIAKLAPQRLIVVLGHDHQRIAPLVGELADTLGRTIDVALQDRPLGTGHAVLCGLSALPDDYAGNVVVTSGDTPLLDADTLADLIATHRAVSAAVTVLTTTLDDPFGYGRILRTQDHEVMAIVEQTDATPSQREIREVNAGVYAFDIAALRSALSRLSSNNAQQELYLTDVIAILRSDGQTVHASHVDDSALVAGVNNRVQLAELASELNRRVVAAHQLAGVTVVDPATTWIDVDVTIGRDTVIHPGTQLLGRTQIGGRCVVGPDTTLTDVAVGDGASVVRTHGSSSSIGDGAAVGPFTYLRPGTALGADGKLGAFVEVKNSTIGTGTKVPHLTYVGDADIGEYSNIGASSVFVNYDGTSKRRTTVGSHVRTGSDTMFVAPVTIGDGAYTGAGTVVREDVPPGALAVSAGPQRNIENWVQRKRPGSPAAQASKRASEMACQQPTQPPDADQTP

[5] = target: Beta-adrenergic receptor kinase 1 (Homo sapiens, UniProt P25098); test: aptamer displacement from bead-bound GRK2 – biochemical, cherry pick 1, bead flow cytometry, dose response (AID 504500)
HEK293 [6] = test: inhibitors of LMP1-driven NF-kB reporter, dose response, cell-based, HEK293, luciferase, cherry-pick (AID 588343); format: functional; conditions: Homo sapiens
Caspase-6 = target: T3, Caspase-6 (Homo sapiens, UniProt P55212); test: human caspase-6 inhibitors, dose response, biochemical, VEID-R110 fluorescence, cherry-pick (AID 720632)
T3 sequence (P55212 whole entry): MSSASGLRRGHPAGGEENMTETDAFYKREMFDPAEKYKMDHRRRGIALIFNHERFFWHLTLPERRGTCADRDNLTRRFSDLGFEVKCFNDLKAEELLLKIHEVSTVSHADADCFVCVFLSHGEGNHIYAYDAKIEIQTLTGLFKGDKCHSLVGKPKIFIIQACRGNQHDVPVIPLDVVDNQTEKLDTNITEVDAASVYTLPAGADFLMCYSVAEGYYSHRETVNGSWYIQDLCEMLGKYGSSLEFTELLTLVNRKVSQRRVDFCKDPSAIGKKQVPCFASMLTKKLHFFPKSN

[7] = target: Histone-lysine N-methyltransferase NSD2 (Homo sapiens, UniProt O96028); format: biochemical
[8] = LGR2 antagonists, dose response, cell-based, HEK293, CRE-luciferase reporter, cherry pick, set 2 (AID 743343); format: functional;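 note: transfected cells were stimulated with diluted bursicon conditioned medium after compound addition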
[9] = MC4R antagonists, dose response, counter-screen for LGR2 antagonist project, cell-based, plate reader, cherry pick (AID 743444); format: functional;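 note: transfected HEK 293 cells stimulated with alpha-MSH peptide; potency of inhibitors of the alpha-MSH evoked signal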
[10] = inhibitors of firefly luciferase expression or activity, dose response, H4 neuroglioma cells, luminescence (AID 1990); format: functional, cell-based
[11] = Luminescence Cell-Based Dose Response HTS to Identify Inhibitors of 5'UTR Stem-Loop Driven Prion Protein mRNA Translation in H4 Neuroglioblastoma Cells. [Related pubchem assays: 1827 (Project Summary), 1813 (Primary HTS)]; format: functional
[12] = target: T4, Heat shock factor protein 1 (Mus musculus, UniProt P38532); test: inhibition of MG132-induced HSE-luciferase signal, confirmation, cell-based, NIH3T3, luminescence, dose retest (AID 2382); format: functional;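 note: NIH3T3 fibroblasts with HSF1-driven luciferase reporter stressed by proteasome inhibitor MG132; luminescence from HSF1-driven luciferase expression after 8 hours of MG132 stress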
T4 sequence (P38532 whole entry): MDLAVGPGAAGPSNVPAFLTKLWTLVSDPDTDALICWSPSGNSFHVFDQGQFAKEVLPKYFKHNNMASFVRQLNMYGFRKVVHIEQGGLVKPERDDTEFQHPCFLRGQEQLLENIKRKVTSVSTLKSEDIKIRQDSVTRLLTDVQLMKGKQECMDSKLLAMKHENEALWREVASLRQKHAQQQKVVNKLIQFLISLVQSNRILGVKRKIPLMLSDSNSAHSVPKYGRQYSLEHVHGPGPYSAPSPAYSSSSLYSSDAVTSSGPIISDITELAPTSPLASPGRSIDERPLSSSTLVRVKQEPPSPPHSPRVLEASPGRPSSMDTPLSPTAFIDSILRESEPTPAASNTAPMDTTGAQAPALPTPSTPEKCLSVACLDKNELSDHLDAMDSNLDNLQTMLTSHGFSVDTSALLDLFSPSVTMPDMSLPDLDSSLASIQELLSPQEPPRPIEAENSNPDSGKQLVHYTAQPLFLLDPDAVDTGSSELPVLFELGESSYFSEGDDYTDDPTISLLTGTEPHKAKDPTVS

[13] = inhibitors of SNCA 5'UTR-driven reporter translation, confirmation, H4 neuroglioma cells, luminescence (AID 1988); format: functional, cell-based
[14] = target: Heat shock protein HSP 90-alpha (Homo sapiens, UniProt P07900); test: Luminescence-based dose response biochemical high throughput screening assay for inhibitors of the Heat Shock Protein 90 (HSP90). [Related pubchem assays: 1831 (Summary AID.), 1846 (Confirmation screen.), 1789 (Primary screen.)]
[15] = target: Luciferin 4-monooxygenase (Photuris pensylvanica, UniProt Q27757); test: firefly luciferase enzyme inhibitors, dose response, counter-screen for HSF-1 reporter inhibitor project, biochemical, Cell Titer Glo, luminescence, cherry-picks (AID 588847)
[16] = Shn3 3'UTR reporter inhibitors, dose response, cell-based, Clone20 osteoblasts, firefly luciferase, cherry-picked (AID 624132); format: functional;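 note: firefly luciferase luminescence from reporter carrying the Shn3 3'UTR in osteoblasts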
[17] = HepG2 cell cytotoxicity, dose response, cytotoxicity control for Shn3 inhibitor project, CellTiter-Glo, cherry-picked (AID 624134); format: functional, cell-based
[18] = control 3'UTR Renilla luciferase suppression, dose response, counter-screen for Shn3 inhibitor project, cell-based, Clone20-Shn3RL, cherry-picked (AID 624133); format: functional
[19] = inhibitors of HIV Env-driven cell fusion, dose response, cherry-pick (AID 652057); format: functional, cell-based
[20] = CEM21 lymphoblast cell cytotoxicity, dose response, cytotoxicity control for viral fusion inhibitor project, CellTiter-Glo luminescence, cherry-picked (AID 652042); format: functional, cell-based;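 note: potency for signal decrease meaning cytotoxicity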
[21] = ZM109 Env clade C HIV-1 fusion inhibitors, dose response, HeLa effector, CEM target cells, luciferase, cherry-pick (AID 652058); format: functional, cell-based
Paired box protein Pax-8 = Paired box protein Pax-8 (Homo sapiens, UniProt Q06710); test: inhibitors of PAX8-driven TPO luciferase reporter, dose response, RMG-I cells, cherry-pick (AID 687027); format: functional, cell-based;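 note: luciferase reporter driven by Pax8 target thyroperoxidase promoter measured by SteadyGlo luminescence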
Paired box protein Pax-8, sequence (Q06710 whole entry, the tested form may be a part): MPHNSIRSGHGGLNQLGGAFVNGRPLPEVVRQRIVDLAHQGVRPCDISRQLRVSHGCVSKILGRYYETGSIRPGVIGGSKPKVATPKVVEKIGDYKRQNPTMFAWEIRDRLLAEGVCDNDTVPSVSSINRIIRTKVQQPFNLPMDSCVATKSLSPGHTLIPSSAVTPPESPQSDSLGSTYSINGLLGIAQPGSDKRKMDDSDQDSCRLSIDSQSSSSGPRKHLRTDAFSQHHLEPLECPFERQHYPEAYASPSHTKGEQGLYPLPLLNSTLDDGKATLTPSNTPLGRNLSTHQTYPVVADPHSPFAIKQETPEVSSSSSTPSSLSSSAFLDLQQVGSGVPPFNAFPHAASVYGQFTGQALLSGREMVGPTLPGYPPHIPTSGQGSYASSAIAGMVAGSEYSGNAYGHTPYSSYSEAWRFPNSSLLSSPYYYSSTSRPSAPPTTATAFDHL

[22] = off-target signal loss in HeLa-CEM21 co-culture – HeLa F-luc CTL cells, cherry-picked, counter-screen for HIV-1 Env fusion inhibitor project, dose response (AID 652040); format: functional, cell-based;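 note: potency for signal decrease marking cytotoxic or nonspecific inhibition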
[23] = inhibitors of clade B AD8 Env fusion, dose response, cell-based, cherry-pick (AID 652062); format: functional;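 note: luciferase signal from cell-cell fusion driven by HIV-1 clade B AD8 Env; potency is for inhibitors of fusion seen as a drop in luminescence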
[24] = non-specific cell cytotoxicity, dose response, cytotoxicity control for PAX8 inhibitor project, plate reader, dry powder samples (AID 743021); format: functional, cell-based
HEK293 [25] = test: cytotoxicity in HEK293T NF-kB-Luc cells, SAR follow-up, cytotoxicity control for NF-kB activator project, cell-based, resazurin fluorescence (AID 493251); format: functional; conditions: Homo sapiens
[26] = Fluorescence polarization-based biochemical high throughput dose response assay for activators of the Protein Kinase A-R1A (PKA-R1A) complex. [Related pubchem assays (depositor defined):AID504704, AID504707, AID504799, AID504800]
[27] = Fluorescence polarization-based biochemical high throughput dose response assay for activators of the Protein Kinase A-R2B (PKA-R2B) complex. [Related pubchem assays (depositor defined):AID504700, AID504704, AID504796, AID504797]
Nonstructural protein 1 = Nonstructural protein 1 (Influenza A virus, UniProt Q194T2); format: functional, Influenza A virus (A/California/07/2009(H1N1))
[28] = target: Delta-type opioid receptor (Homo sapiens, UniProt P41143); test: Counterscreen for agonists of heterodimerization of the mu 1 (OPRM1) and delta 1 (OPRD1) opioid receptors: Luminescence-based cell-based high throughput dose response assay to identify agonists of OPRD1 homodimerization. [Related pubchem assays (depositor defined):AID504326, AID504355, AID504692, AID504904, AID504905]; format: functional
Delta-type opioid receptor, sequence (P41143 whole entry): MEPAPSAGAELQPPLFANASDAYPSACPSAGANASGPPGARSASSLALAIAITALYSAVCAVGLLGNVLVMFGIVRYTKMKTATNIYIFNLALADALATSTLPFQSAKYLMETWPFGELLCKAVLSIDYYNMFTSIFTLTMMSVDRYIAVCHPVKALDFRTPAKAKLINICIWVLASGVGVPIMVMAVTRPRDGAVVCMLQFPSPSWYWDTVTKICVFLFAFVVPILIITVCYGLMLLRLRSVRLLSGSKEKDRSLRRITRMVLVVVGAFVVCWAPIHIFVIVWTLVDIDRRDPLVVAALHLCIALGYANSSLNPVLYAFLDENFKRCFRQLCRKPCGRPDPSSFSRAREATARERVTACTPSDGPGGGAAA

Mu-type opioid receptor = Mu-type opioid receptor (Homo sapiens, UniProt P35372); test: Counterscreen for agonists of heterodimerization of the mu 1 (OPRM1) and delta 1 (OPRD1) opioid receptors: Luminescence-based cell-based high throughput dose response assay to identify agonists of OPRM1 homodimerization.; format: functional;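 note: U2OS cells expressing OPRM1 and beta-arrestin as split beta-galactosidase partners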
Mu-type opioid receptor, sequence (P35372 whole entry): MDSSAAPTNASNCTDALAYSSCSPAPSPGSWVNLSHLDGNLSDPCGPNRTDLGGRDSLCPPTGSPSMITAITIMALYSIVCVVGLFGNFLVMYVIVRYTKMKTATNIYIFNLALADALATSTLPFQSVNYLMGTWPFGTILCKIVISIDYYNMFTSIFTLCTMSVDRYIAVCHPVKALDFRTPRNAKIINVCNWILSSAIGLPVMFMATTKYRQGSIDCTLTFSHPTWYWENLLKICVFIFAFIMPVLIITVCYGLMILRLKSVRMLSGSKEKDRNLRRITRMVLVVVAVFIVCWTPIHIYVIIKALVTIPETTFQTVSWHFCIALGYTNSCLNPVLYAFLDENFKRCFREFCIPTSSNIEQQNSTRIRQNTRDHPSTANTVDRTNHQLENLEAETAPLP

[29] = target: 5-hydroxytryptamine receptor 5A (Homo sapiens, UniProt P47898); test: Counterscreen for agonists of OPRM1-OPRD1 heterodimerization: luminescence-based cell-based high throughput dose response assay to identify agonists of 5-hydroxytryptamine (serotonin) 5A receptor (HTR5A). [Related pubchem assays (depositor defined):AID504326, AID504355, AID504692, AID504904, AID504905]; format: functional
[30] = HeLa cell cytotoxicity, dose response, cytotoxicity control for MgcRacGAP inhibitor project (AID 624300); format: functional
[31] = target: T5, Rac GTPase-activating protein 1 (Homo sapiens, UniProt Q9H0H5); test: MgcRacGAP GTPase-activating activity inhibitors, confirmation, biochemical, ADP Hunter fluorescence, primary and confirmatory (AID 624330); format: functional
T5 sequence (Q9H0H5 whole entry): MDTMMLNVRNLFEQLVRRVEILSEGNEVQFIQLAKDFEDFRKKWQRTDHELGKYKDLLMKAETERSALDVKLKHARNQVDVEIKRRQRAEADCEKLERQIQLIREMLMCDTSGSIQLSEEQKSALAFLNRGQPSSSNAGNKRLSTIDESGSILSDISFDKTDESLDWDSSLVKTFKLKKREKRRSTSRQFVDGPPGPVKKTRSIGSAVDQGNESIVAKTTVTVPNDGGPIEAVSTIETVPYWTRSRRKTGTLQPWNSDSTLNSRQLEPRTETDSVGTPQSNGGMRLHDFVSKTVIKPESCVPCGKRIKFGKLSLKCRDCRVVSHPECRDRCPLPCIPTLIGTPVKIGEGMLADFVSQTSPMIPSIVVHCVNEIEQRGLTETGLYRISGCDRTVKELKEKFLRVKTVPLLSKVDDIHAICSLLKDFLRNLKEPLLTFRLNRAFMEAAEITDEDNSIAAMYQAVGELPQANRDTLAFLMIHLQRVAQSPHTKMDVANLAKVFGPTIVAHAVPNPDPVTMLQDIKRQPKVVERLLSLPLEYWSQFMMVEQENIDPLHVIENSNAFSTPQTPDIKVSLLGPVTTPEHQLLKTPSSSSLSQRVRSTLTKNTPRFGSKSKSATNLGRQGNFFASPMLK

[32] = THP-1 cell cytotoxicity, dose response, cytotoxicity control for Vif-APOBEC3G degradation inhibitor project, THP-1 cells (AID 1117359); format: functional; conditions: Human immunodeficiency virus 1, THP-1
[33] = target: Glutathione-S-transferase (Schistosoma japonicum, UniProt Q26513); test: biotin-GST/anti-GST TR-FRET signal inhibitors, dose response, artefact control for Vif-APOBEC3G degradation inhibitor project, biochemical (AID 1117362); format: functional
Glutathione-S-transferase, sequence (Q26513 whole entry): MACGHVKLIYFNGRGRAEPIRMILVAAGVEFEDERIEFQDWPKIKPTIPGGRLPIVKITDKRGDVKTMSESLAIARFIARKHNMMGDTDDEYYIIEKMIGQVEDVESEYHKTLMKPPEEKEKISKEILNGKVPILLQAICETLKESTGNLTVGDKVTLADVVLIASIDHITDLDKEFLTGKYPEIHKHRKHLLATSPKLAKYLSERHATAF

Beta-2 adrenergic receptor, sequence (P07550 whole entry): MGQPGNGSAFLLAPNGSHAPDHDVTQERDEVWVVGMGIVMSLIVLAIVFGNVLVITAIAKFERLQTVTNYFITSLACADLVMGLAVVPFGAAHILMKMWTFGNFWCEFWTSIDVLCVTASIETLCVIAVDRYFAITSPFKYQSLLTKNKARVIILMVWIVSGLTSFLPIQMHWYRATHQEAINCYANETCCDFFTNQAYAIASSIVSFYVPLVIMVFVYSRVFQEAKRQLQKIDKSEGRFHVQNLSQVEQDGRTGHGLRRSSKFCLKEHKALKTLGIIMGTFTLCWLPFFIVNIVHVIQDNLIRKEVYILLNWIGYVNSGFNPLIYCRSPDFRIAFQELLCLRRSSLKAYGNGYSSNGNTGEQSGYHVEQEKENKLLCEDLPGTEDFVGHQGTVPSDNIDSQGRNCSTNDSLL

## CC1=C(C(=O)Nc2ccc(C(=O)N3CCN(c4ccccc4F)CC3)cc2)SCCO1
[1]
  EC50: 3.01 µM (active)

## O=C(O)c1c2c(nc3ccccc13)/C(=C/c1ccc(O)cc1)CC2
[2]
  IC50: 3.85 µM (active)
[3]
  IC50: 18.4 µM (active)
[4]
  IC50: 124 µM (active)
[5]
  EC50: 33.3 µM (inactive)
HEK293 [6]
  AC50: 1.93 µM (active)
Caspase-6
  AC50: 2 µM (active)
[7]
  AC50: 9.03 µM (active)
[8]
  AC50: 6.42 µM (active)
[9]
  AC50: 6.44 µM (active)

## CC1CCN(c2ccc(-c3cccc(NC(=O)C(F)(F)F)c3)nn2)CC1
[10]
  EC50: 5.09 µM (inconclusive)
[11]
  EC50: 8.19 µM (active)
[12]
  EC50: < 0.16 µM (active)
[13]
  EC50: 0.475 µM (inconclusive)
[14]
  IC50: 8.01 µM (active)
[15]
  AC50: 29.2 µM (active)
[16]
  AC50: 2.74 µM (active)
[17]
  AC50: 44.1 µM (active)
[18]
  AC50: 3.1 µM (active)
[19]
  AC50: 2.55 µM (active)
[20]
  AC50: 32.2 µM (active)
[21]
  AC50: 36.5 µM (active)
Paired box protein Pax-8
  AC50: 3.37 µM (active)
[22]
  AC50: 4.11 µM (active)
[23]
  AC50: 11.5 µM (active)
[24]
  AC50: 32 µM (active)

## Cc1oc(-c2ccccc2)nc1CSCC(=O)NC1CC1
HEK293 [25]
  IC50: > 80 µM (inactive)

## CCCC(=O)Nc1ncnc2c1ncn2[C@@H]1O[C@@H]2OP(=O)(O)OC[C@H]2[C@H]1OC(=O)CCC
[26]
  EC50: 6.7 µM (active)
[27]
  EC50: 9.1 µM (active)

## CCN(CC)Cc1cc(Nc2c3ccccc3nc3c4ccccc4n(C)c23)cc(CN(CC)CC)c1O
Nonstructural protein 1
  IC50: 17.9 µM (active)
[28]
  EC50: 1.49 µM (active)
Mu-type opioid receptor
  EC50: > 92.6 µM (inactive)
[29]
  EC50: > 92.6 µM (inactive)
[30]
  CC50: 80 µM (active)
[31]
  IC50: 22.1 µM (active)
[32]
  CC50: 11 µM (active)
[33]
  IC50: 59.5 µM (active)
